Patent US20030237104A1 (priority 2002, published 2003)
Read-outs that look alike come from different tables or passages of the source.

How the values were obtained:
[1] = system: CB6F1-HRAS2 mice; conditions: in vivo
[2] = system: non-Tg mice (CB6F1); conditions: mouse, in vivo
[3] = system: Salmonella; conditions: cited from earlier work
[4] = system: CB6F1-Tg-rasH2 mice; conditions: mouse, in vivo, ip, 75 mg/kg
[5] = system: rasH2 mice; conditions: mouse, in vivo, ip; cited from earlier work
[6] = CB6F1-HRAS2 and non-Tg CB6F1, mouse
[7] = CB6F1-HRAS2, mouse, sc, 15 mg/kg
[8] = CB6F1-HRAS2, mouse, ip, 60 mg/kg

SMILES: [O-][n+]1ccc(NO)c2ccccc21 [4HAQO, 4-Hydroxyaminoquinoline-1-oxide]
- tumors in the exocrine portion of the pancreas [1, 6]: Neither the 4HAQO-treated Tg nor the non-Tg mice developed tumors
- Malignant Tumors Tg ([1]; mouse): ++
- Rapid tumor response in Tg mice ([1]; mouse): +
- Tumor incidence and/or multiplicity ([1]; mouse): Tg > non-Tg
- forestomach and skin papillomas ([1]; mouse): induced
- other tumors (e.g., leukemias and thymomas) ([1]; mouse): observed only in the Tg mice
- Malignant Tumors Non-Tg [2]: +
- forestomach and skin papillomas [2]: hardly observed
- Genotoxicity (Salmonella) [3]: +

SMILES: O=[N+]([O-])c1cc[n+]([O-])c2ccccc12 [4NQO, 4-Nitroquinoline-1-oxide]
- lung adenocarcinomas [1, 7]: observed only in 4NQO-treated CB6F1-HRAS2 mice
- squamous cell carcinomas of skin [1, 7]: observed only in 4NQO-treated CB6F1-HRAS2 mice
- mice bearing skin papillomas ([1]; both, CB6F1-HRAS2, mouse, sc, 15 mg/kg): Approximately 90%
- Malignant Tumors Tg ([1]; mouse): +
- Rapid tumor response in Tg mice ([1]; mouse): +
- Tumor incidence and/or multiplicity ([1]; mouse): Tg > non-Tg
- incidence of lung adenoma ([1]; mouse, sc, 15 mg/kg): higher than that in corresponding non-Tg mice
- Malignant Tumors Non-Tg [2]: −
- skin tumors ([2]; sc, 15 mg/kg): No skin tumors were observed

SMILES: O=P1(N(CCCl)CCCl)NCCCO1 (centres unmarked) [Cyclophosphamide]
- adenocarcinomas (lung) ([1]; CB6F1-HRAS2, mouse): observed only in one cyclophosphamide-treated male CB6F1-HRAS2 mouse
- Malignant Tumors Tg ([1]; mouse): +
- Tumor incidence and/or multiplicity ([1]; mouse): Tg ÷ non-Tg
- incidence and multiplicity of lung adenoma ([1]; mouse): not significantly higher
- incidence of lung adenoma ([1]; mouse): not significantly different from that in corresponding non-Tg mice
- lung tumors ([1]; mouse): induced lung tumors
- tumors in other organs (bladder, mammary gland, lymphatic systems) ([1]; mouse): No tumor was observed
- Malignant Tumors Non-Tg [2]: −
- Genotoxicity (Salmonella) [3]: +

SMILES: S=C1NCCN1 [Ethylene thiourea]
- incidence of thyroid adenocarcinoma ([1]; female, CB6F1-HRAS2, mouse): 9%
- thyroid adenomas incidence ([1]; female, CB6F1-HRAS2, mouse): 26%
- Malignant Tumors Tg ([1]; mouse): +
- Tumor incidence and/or multiplicity ([1]; mouse): Tg ÷ non-Tg
- thyroid tumors ([1]; mouse): did not induce
- incidence of thyroid adenocarcinoma ([2]; female, CB6F1 (non-Tg)): 4%
- thyroid adenomas incidence ([2]; female, CB6F1 (non-Tg)): 20%
- Malignant Tumors Non-Tg [2]: +
- Genotoxicity (Salmonella) [3]: −
- Salmonella mutagenesis assay result [3]: negative

SMILES: C[N+]([O-])=NCO [MAM, Methylazoxymethanol]
- Malignant Tumors Tg ([1]; mouse): +
- Tumor incidence and/or multiplicity ([1]; mouse): Tg > non-Tg^c
- incidence and multiplicity of lung adenoma ([1]; mouse): not significantly higher
- lung adenoma incidence ([1]; mouse, sc, 20 mg/kg): similar
- Malignant Tumors Non-Tg [2]: −
- Genotoxicity (Salmonella) [3]: +

SMILES: CN(N=O)C(N)=O [MNU, N-Methyl-N-nitrosourea]
- forestomach squamous cell carcinoma ([1]; CB6F1-HRAS2, mouse): seen only in MNU-treated CB6F1-HRAS2 mice
- Malignant Tumors Tg ([1]; mouse): +
- Rapid tumor response in Tg mice ([1]; mouse): +
- Tumor incidence and/or multiplicity ([1]; mouse): Tg > non-Tg
- forestomach papillomas ([1]; mouse): high incidence
- incidence and multiplicity of lung adenoma ([1]; mouse): not significantly higher
- incidence of skin papilloma ([1]; mouse): significantly high incidence
- incidence of lymphoma ([1]; mouse, 75 mg/kg): higher
- Malignant Tumors Non-Tg [2]: −
- forestomach papillomas [2]: no papillomas
- skin papillomas and hyperplasias [2]: did not induce
- incidences of forestomach tumor and malignant lymphoma among institutions [4]: High and consistent incidences
- incidences of tumor (squamous cell tumor in forestomach, skin, vagina; Harderian gland carcinoma; lung adenomas; malignant lymphoma) [4]: increased
- Genotoxicity (Salmonella) [3]: +
- forestomach and skin papillomas [5]: higher incidence

SMILES: C=COC(N)=O [Vinyl carbamate]
- lung adenocarcinomas incidence [1, 8]: 50%
- lung adenomas incidence [1, 8]: 100%
- mice bearing spleen hemangiosarcomas [1, 8]: Approximately 90%
- liver tumors [1, 6]: neither CB6F1-HRAS2 mice nor control non-Tg mice treated with these compounds developed liver tumors
- Malignant Tumors Tg ([1]; mouse): ++
- Rapid tumor response in Tg mice ([1]; mouse): +
- Tumor incidence and/or multiplicity ([1]; mouse): Tg > non-Tg
- lung adenomas incidence ([2]; CB6F1 (non-Tg), ip, 60 mg/kg): > 90%
- Malignant Tumors Non-Tg [2]: +
- incidence of lung adenocarcinoma ([2]; ip, 60 mg/kg): much lower
- spleen hemangiosarcomas ([2]; ip, 60 mg/kg): none developed
- tumor multiplication (lung adenomas) ([2]; ip, 60 mg/kg): lower
- Genotoxicity (Salmonella) [3]: +
